Calls of active or inactive are those of the source. No rule for the calls is given here.
Target: Serine/threonine-protein kinase mTOR (Homo sapiens) (UniProt P42345)
Experiment: binders of mTOR FRB domain, biophysical, NMR (AID 1648)
Conditions: NMR binding to FRB domain, chemical shift

Sequence of Serine/threonine-protein kinase mTOR (Homo sapiens) (P42345 2015-2114): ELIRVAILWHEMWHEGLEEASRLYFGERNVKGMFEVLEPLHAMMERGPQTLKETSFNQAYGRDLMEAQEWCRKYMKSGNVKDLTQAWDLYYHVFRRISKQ

SMILES	Kd
COC(=O)[C@]1(C)CCC[C@]2(C)c3ccc(C(C)C)cc3C(=O)CC12 (stereo partly specified)	> 4 mM (inactive)
O=S(=O)(O)c1cc[n+]([O-])cc1	> 4 mM (inactive)
CNC(=O)C1CC(=O)N(c2ccc(O)cc2)C1 (stereo unspecified)	> 4 mM (inactive)
O=C(c1ccccc1-c1ccccc1)N1CCOCC1	> 4 mM (inactive)
c1coc(CNc2nc(-c3ccncc3)cs2)c1	> 4 mM (inactive)
O=C(c1ccc(Cl)s1)N1CCOCC1	> 4 mM (inactive)
COc1cccc2c(=O)n(CC(N)=O)ccc12	> 4 mM (inactive)
NCc1ccc(-c2cccs2)s1	> 4 mM (inactive)
CS(=O)(=O)c1nncn1-c1ccccc1	> 4 mM (inactive)
O=S(=O)(NCc1ccco1)N1CCOCC1	> 4 mM (inactive)
CS(=O)(=O)Cc1ccccc1	> 4 mM (inactive)
CC(C)n1c(-c2ccncc2)n[nH]c1=S	> 4 mM (inactive)
CC(=O)N1CCC(NC2CCCCCC2)CC1	> 4 mM (inactive)
Cc1cc(=O)n2[nH]cnc2n1	> 4 mM (inactive)
CC(C)=CCC/C(C)=C/CC/C(C)=C/CC/C(C)=C/CC/C(C)=C/CC/C(C)=C/CC/C(C)=C/CC/C(C)=C/CC/C(C)=C/CO	> 4 mM (inactive)
COc1ccccc1NC(=O)/C=N/O	> 4 mM (inactive)
Nc1cc(-c2ccco2)[nH]n1	> 4 mM (inactive)
NC(=O)C1CCN(c2ncnc(N)c2[N+](=O)[O-])CC1	> 4 mM (inactive)
Cc1cc(C)n2nc(-c3cccnc3)nc2n1	> 4 mM (inactive)
COc1cc2c(cc1OC)C1(O)C(=O)c3ccc(O)c(C(=O)O)c3OC1CO2 (stereo unspecified)	> 4 mM (inactive)
CC(=O)O[C@@H]1CC2C(C)(CC[C@H](O)C2(C)C)C2CC[C@]3(C)C(=CC(=O)O[C@H]3c3ccoc3)C21C (stereo partly specified)	> 4 mM (inactive)
O=C(O)CCNc1n[nH]c(=O)[nH]c1=O	> 4 mM (inactive)

SMILES	Kd
Cc1nn(-c2ccccc2)nc1CO	> 4 mM (inactive)
CC(=O)NC(=S)Nc1ccc(C(C)=O)cc1	> 4 mM (inactive)
O=C(O)c1cc(O)c2c(c1)[C@@H]([C@H]1c3cc(C(=O)O)cc(O)c3C(=O)c3c(O[C@H]4O[C@H](CO)[C@@H](O)[C@H](O)[C@H]4O)cccc31)c1cccc(O[C@H]3O[C@H](CO)[C@@H](O)[C@H](O)[C@H]3O)c1C2=O	> 4 mM (inactive)
O=C(c1ccco1)N1CCNCC1	> 4 mM (inactive)
Cc1ccccc1NS(=O)(=O)c1ccc(F)cc1	> 4 mM (inactive)
CC(=O)N1CCc2ccccc2C1CC(=O)O (stereo unspecified)	> 4 mM (inactive)
CC(=O)Oc1ccc(-c2cc(=O)c3c(OC(C)=O)cc(OC(C)=O)cc3o2)cc1	> 4 mM (inactive)
O=S(=O)(Cc1ccc(Cl)cc1)N1CCCC1	> 4 mM (inactive)
Cn1c(=O)c2c(ncn2C)n(C)c1=O	> 4 mM (inactive)
O=C(O)CCC1=C2c3ccccc3CCN2C(=O)CC1	> 4 mM (inactive)
O=C(Nc1ccc(N2CCCC2=O)cc1)c1cccc(F)c1	> 4 mM (inactive)
O=C(Nc1cnccn1)c1cccs1	> 4 mM (inactive)
CC1(C)C2CC(=O)[C@]3(C)C(CC[C@@]4(C)[C@H](c5ccoc5)OC(=O)[C@H]5O[C@]543)[C@@]2(C)C=C[C@@H]1O (stereo partly specified)	> 4 mM (inactive)
NC(C(=O)O)C(O)c1ccccc1 (stereo unspecified)	> 4 mM (inactive)
Cc1c(F)cccc1NS(=O)(=O)c1ccccc1C#N	> 4 mM (inactive)
CCN1CCC(=NO)CC1	> 4 mM (inactive)
CN1CCC(NC(=O)C2CCCO2)CC1 (stereo unspecified)	> 4 mM (inactive)
Cn1ncc(N2CCOCC2)c(Cl)c1=O	> 4 mM (inactive)
COc1c(O)cccc1O	> 4 mM (inactive)
CCOC(=O)c1cnn2ccccc12	> 4 mM (inactive)
CC1(C)CN=C(Nc2nc3ccccc3s2)S1	> 4 mM (inactive)
Cc1cc(C)c(-c2cc(C(F)(F)F)no2)c(=O)[nH]1	> 4 mM (inactive)

SMILES	Kd
Cc1occc1C(=O)NCc1ccccc1F	> 4 mM (inactive)
C=C1C(=O)O[C@@H]2C[C@@]3(C)CCC[C@H](C)C3=C[C@H]12	> 4 mM (inactive)
CCn1cnc(C(=O)NC)c1C(=O)NC	> 4 mM (inactive)
Fc1ccc(F)c(CN2CCN(c3ncccn3)CC2)c1	> 4 mM (inactive)
O=S(=O)(Cc1ccccc1Cl)Nc1ccccn1	> 4 mM (inactive)
Cc1ccc(S(=O)(=O)CC(=O)N(C)C)cc1	> 4 mM (inactive)
COCC(=O)/C=C1\Sc2ccccc2N1C	> 4 mM (inactive)
Cc1ncoc1C(=O)Nc1ccccc1C(N)=O	> 4 mM (inactive)
COc1ccc(Cl)cc1NC(=O)C(N)=O	> 4 mM (inactive)
c1ccc(CCN2CCN(CCc3ccccn3)CC2)nc1	> 4 mM (inactive)
CCc1ccccc1NC(=O)c1cnccn1	> 4 mM (inactive)
Cc1nnc(SCc2ccccc2)[nH]c1=O	> 4 mM (inactive)
O=C(O)C1CCCCN1Cc1ccccc1 (stereo unspecified)	> 4 mM (inactive)
O=C(CN1CCOCC1)Nc1nccs1	> 4 mM (inactive)
CN1C(=O)/C(=C/c2ccccc2O)NC1=S	> 4 mM (inactive)
O=C(O)C1Cc2ccccc2O1 (stereo unspecified)	> 4 mM (inactive)
CC(C)(C)C(=O)Nc1nnc(SCC(N)=O)s1	> 4 mM (inactive)
Cc1nn(CC(=O)Nc2ccccc2)c(=O)c2ccccc12	> 4 mM (inactive)
O=C(c1ccccc1)c1ccc(N2CCNCC2)cc1	> 4 mM (inactive)
O=C(NC12CC3CC(CC(C3)C1)C2)c1cnccn1	> 4 mM (inactive)
O=C(OCc1c(F)cccc1Cl)c1cnccn1	> 4 mM (inactive)
Cn1ncc(NC(=O)Nc2ccc(F)cc2F)c1C(N)=O	> 4 mM (inactive)

SMILES	Kd
COc1ccc(C(=O)/C=C/c2ccccc2)cc1	> 4 mM (inactive)
O=C(CSc1ncn[nH]1)c1ccccc1	> 4 mM (inactive)
CN(C)C1CCS(=O)(=O)C1 (stereo unspecified)	> 4 mM (inactive)
CC(C)Oc1ccc(NC(N)=O)cc1	> 4 mM (inactive)
CCN1CCN(CCCNc2ncnc3nc[nH]c23)CC1	> 4 mM (inactive)
c1coc(-c2nc(-c3ccncc3)no2)c1	> 4 mM (inactive)
OCC1COc2ccccc2C1 (stereo unspecified)	> 4 mM (inactive)
CN1C(=O)c2ccc(N=C3NC(=O)CS3)cc2C1=O	> 4 mM (inactive)
CCN(CC)S(=O)(=O)c1cccc2nsnc12	> 4 mM (inactive)
Cc1nnsc1C(=O)N(C)c1ccccc1	> 4 mM (inactive)
Oc1ccc2nonc2c1	> 4 mM (inactive)
CC(=O)N1CCN(C2CCSC2)CC1 (stereo unspecified)	> 4 mM (inactive)
CC1=NN(c2ccc(C)cc2)C(=O)C1	> 4 mM (inactive)
COc1ccccc1NC(=O)NC(N)=O	> 4 mM (inactive)
Cc1ccc(C(=O)N2CCOCC2)cc1Cl	> 4 mM (inactive)
COc1ncnc(N)c1[N+](=O)[O-]	> 4 mM (inactive)
CC(=O)c1cccc(NC(=O)NN2CCOCC2)c1	> 4 mM (inactive)
O=C(O)c1ccnn1-c1ccccc1	> 4 mM (inactive)
CC(=O)Oc1cc(-c2coc3cc(OC(C)=O)c(OC(C)=O)c(OC(C)=O)c3c2=O)cc(OC(C)=O)c1OC(C)=O	> 4 mM (inactive)
O=C1C=CC(=O)c2c(O)cccc21	> 4 mM (inactive)

From PubChem BioAssay AID1648 (Sanford-Burnham Center for Chemical Genomics, 2009)
